This note sets out measurements from ChEMBL document CHEMBL3608278 (J Med Chem, 2015).

The term IC50 denotes the concentration at which inhibition is half-maximal. The low end stands for greater potency, the high end for weaker potency.

Experiment [1] addresses T1, Potassium voltage-gated channel subfamily A member 3 (Homo sapiens, UniProt P22001). Kind of experiment: cell-based. Also on record: species or system Blood.
The target in experiment [2] is T1, Potassium voltage-gated channel subfamily A member 3. Also on record: species or system Blood.
Experiment [3] has the same target. Type of experiment: cell-based, CHO-K1.

T1 sequence (P22001 whole entry): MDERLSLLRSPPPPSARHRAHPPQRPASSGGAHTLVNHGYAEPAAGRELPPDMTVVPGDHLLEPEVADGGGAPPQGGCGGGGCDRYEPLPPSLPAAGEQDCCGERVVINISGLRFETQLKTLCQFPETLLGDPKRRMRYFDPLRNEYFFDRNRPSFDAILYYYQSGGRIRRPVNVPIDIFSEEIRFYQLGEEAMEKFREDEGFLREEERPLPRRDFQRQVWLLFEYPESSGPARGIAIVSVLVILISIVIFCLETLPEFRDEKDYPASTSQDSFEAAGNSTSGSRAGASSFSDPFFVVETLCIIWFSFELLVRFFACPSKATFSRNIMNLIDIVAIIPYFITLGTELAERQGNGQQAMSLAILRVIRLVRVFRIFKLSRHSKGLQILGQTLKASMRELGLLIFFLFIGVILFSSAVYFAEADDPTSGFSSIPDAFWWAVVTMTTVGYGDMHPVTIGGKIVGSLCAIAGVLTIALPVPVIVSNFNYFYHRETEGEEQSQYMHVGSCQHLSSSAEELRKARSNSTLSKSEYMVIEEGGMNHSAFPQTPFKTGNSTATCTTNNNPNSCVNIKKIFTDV

With `CC[C@H](C)[C@@H]1NC(=O)[C@@H](NC(=O)[C@H](CO)NC(=O)[C@@H](N)CCCNC(=N)N)CSSC[C@@H](C(=O)O)NC(=O)[C@H]([C@@H](C)O)NC(=O)CNC(=O)[C@@H]2CSSC[C@@H]3NC(=O)[C@H](CCC(N)=O)NC(=O)[C@H](Cc4ccccc4)NC(=O)[C@H](C)NC(=O)[C@H]([C@@H](C)O)NC(=O)[C@H](CSSC[C@H](NC(=O)[C@H](Cc4ccccc4)NC(=O)[C@H](CO)NC(=O)[C@H](CC(C)C)NC(=O)[C@H](CCCNC(=N)N)NC(=O)[C@H](Cc4ccc(O)cc4)NC(=O)[C@H](CCCCN)NC(=O)[C@H](CCSC)NC(=O)[C@H](CO)NC(=O)[C@H](Cc4cnc[nH]4)NC(=O)[C@H](CCCCN)NC3=O)C(=O)N[C@@H](CCCNC(=N)N)C(=O)N[C@@H](CCCCN)C(=O)N[C@@H]([C@@H](C)O)C(=O)N2)NC(=O)[C@H](CCCNC(=N)N)NC(=O)[C@H](CO)NC(=O)[C@H](CCCCN)NC(=O)[C@@H]2CCCN2C(=O)[C@H](C)NC(=O)[C@H]([C@@H](C)O)NC(=O)[C@H](CC(=O)O)NC1=O`, the half-inhibitory concentration (IC50) in experiment [1] stood at 0.748 nM; in experiment [2], 1.98 nM; in experiment [3] it was 0.201 nM.

For `CC[C@H](C)[C@@H]1NC(=O)[C@@H](NC(=O)[C@H](CO)NC(=O)[C@@H](N)CCCNC(=N)N)CSSC[C@@H](C(=O)O)NC(=O)[C@H]([C@@H](C)O)NC(=O)CNC(=O)[C@@H]2CSSC[C@@H]3NC(=O)[C@H](CCC(N)=O)NC(=O)[C@H](Cc4ccccc4)NC(=O)[C@H](C)NC(=O)[C@H]([C@@H](C)O)NC(=O)[C@H](CSSC[C@H](NC(=O)[C@H](Cc4ccccc4)NC(=O)[C@H](CO)NC(=O)[C@H](CC(C)C)NC(=O)[C@H](CCCNC(=N)N)NC(=O)[C@H](Cc4ccc(O)cc4)NC(=O)[C@H](CCCCN)NC(=O)[C@H](CCSC)NC(=O)[C@H](CO)NC(=O)[C@H](Cc4cnc[nH]4)NC(=O)[C@H](CCCCN)NC3=O)C(=O)N[C@@H](CCCNC(=N)N)C(=O)N[C@@H](CCCCN)C(=O)N[C@@H]([C@@H](C)O)C(=O)N2)NC(=O)[C@H](CCCNC(=N)N)NC(=O)[C@H](CO)NC(=O)[C@H](CCCCN)NC(=O)[C@H](C)NC(=O)[C@H]([C@@H](C)CC)NC(=O)[C@H]([C@@H](C)O)NC(=O)[C@H](CC(=O)O)NC1=O`, the IC50 stood at 0.034 nM in experiment [1], 0.066 nM in experiment [2] and 0.079 nM in experiment [3].

On to `CC[C@H](C)[C@@H]1NC(=O)[C@@H](NC(=O)[C@H](CO)NC(=O)[C@@H](N)CCCNC(=N)N)CSSC[C@@H](C(=O)O)NC(=O)[C@H]([C@@H](C)O)NC(=O)CNC(=O)[C@@H]2CSSC[C@@H]3NC(=O)[C@H](CCC(N)=O)NC(=O)[C@H](Cc4ccccc4)NC(=O)[C@H](C)NC(=O)[C@H]([C@@H](C)O)NC(=O)[C@H](CSSC[C@H](NC(=O)[C@H](Cc4ccccc4)NC(=O)[C@H](CO)NC(=O)[C@H](CC(C)C)NC(=O)[C@H](CCCNC(=N)N)NC(=O)[C@H](Cc4ccc(O)cc4)NC(=O)[C@H](CCCCN)NC(=O)[C@H](CCSC)NC(=O)[C@H](CO)NC(=O)[C@H](Cc4cnc[nH]4)NC(=O)[C@H](CCCCN)NC3=O)C(=O)N[C@@H](CCCNC(=N)N)C(=O)N[C@@H](CCCCN)C(=O)N[C@@H]([C@@H](C)O)C(=O)N2)NC(=O)[C@H](CCCNC(=N)N)NC(=O)[C@H](CO)NC(=O)[C@H](C)NC(=O)[C@@H]2CCCN2C(=O)[C@H]([C@@H](C)CC)NC(=O)[C@H]([C@@H](C)O)NC(=O)[C@H](CC(=O)O)NC1=O`, for which the IC50 in experiment [1] came to 0.045 nM; in experiment [2], 0.081 nM; in experiment [3], 0.119 nM.

As to `CC[C@H](C)[C@@H]1NC(=O)[C@@H](NC(=O)[C@H](CO)NC(=O)[C@@H](N)CCCNC(=N)N)CSSC[C@@H](C(=O)O)NC(=O)[C@H]([C@@H](C)O)NC(=O)CNC(=O)[C@@H]2CSSC[C@@H]3NC(=O)[C@H](CCC(N)=O)NC(=O)[C@H](Cc4ccccc4)NC(=O)[C@H](C)NC(=O)[C@H]([C@@H](C)O)NC(=O)[C@H](CSSC[C@H](NC(=O)[C@H](Cc4ccccc4)NC(=O)[C@H](CO)NC(=O)[C@H](CC(C)C)NC(=O)[C@H](CCCNC(=N)N)NC(=O)[C@H](Cc4ccc(O)cc4)NC(=O)[C@H](CCCCN)NC(=O)[C@H](CCSC)NC(=O)[C@H](CCCCN)NC(=O)[C@H](Cc4cnc[nH]4)NC(=O)[C@H](CCCCN)NC3=O)C(=O)N[C@@H](CCCNC(=N)N)C(=O)N[C@@H](CCCCN)C(=O)N[C@@H]([C@@H](C)O)C(=O)N2)NC(=O)[C@H](CCCNC(=N)N)NC(=O)[C@H](CO)NC(=O)[C@H](CCCCN)NC(=O)[C@@H]2CCCN2C(=O)[C@H]([C@@H](C)CC)NC(=O)[C@H]([C@@H](C)O)NC(=O)[C@H](CC(=O)O)NC1=O`, the figures for the IC50 in experiment [1], in experiment [2] and in experiment [3] were 0.108 nM, 0.193 nM and 0.193 nM, respectively.

With `CC[C@H](C)[C@@H]1NC(=O)[C@@H](NC(=O)[C@H](CO)NC(=O)[C@@H](N)CCCNC(=N)N)CSSC[C@@H](C(=O)O)NC(=O)[C@H]([C@@H](C)O)NC(=O)CNC(=O)[C@@H]2CSSC[C@@H]3NC(=O)[C@H](CCC(N)=O)NC(=O)[C@H](Cc4ccccc4)NC(=O)[C@H](C)NC(=O)[C@H]([C@@H](C)O)NC(=O)[C@H](CSSC[C@H](NC(=O)[C@H](Cc4ccccc4)NC(=O)[C@H](CO)NC(=O)[C@H](CC(C)C)NC(=O)[C@H](CCCNC(=N)N)NC(=O)[C@H](Cc4ccc(O)cc4)NC(=O)[C@H](CCCCN)NC(=O)[C@H](CCCCN)NC(=O)[C@H](CO)NC(=O)[C@H](Cc4cnc[nH]4)NC(=O)[C@H](CCCCN)NC3=O)C(=O)N[C@@H](CCCNC(=N)N)C(=O)N[C@@H](CCCCN)C(=O)N[C@@H]([C@@H](C)O)C(=O)N2)NC(=O)[C@H](CCCNC(=N)N)NC(=O)[C@H](CO)NC(=O)[C@H](CCCCN)NC(=O)[C@@H]2CCCN2C(=O)[C@H]([C@@H](C)CC)NC(=O)[C@H]([C@@H](C)O)NC(=O)[C@H](CC(=O)O)NC1=O`, the 50% inhibitory concentration (IC50) in experiment [1] turned out to be 3.59 nM; in experiment [2], 4.82 nM; in experiment [3] it was 0.798 nM.

As to `CC[C@H](C)[C@@H]1NC(=O)[C@@H](NC(=O)[C@H](CO)NC(=O)[C@@H](N)CCCNC(=N)N)CSSC[C@@H](C(=O)O)NC(=O)[C@H]([C@@H](C)O)NC(=O)CNC(=O)[C@@H]2CSSC[C@@H]3NC(=O)[C@H](CCC(N)=O)NC(=O)[C@H](Cc4ccccc4)NC(=O)[C@H](C)NC(=O)[C@H]([C@@H](C)O)NC(=O)[C@H](CSSC[C@H](NC(=O)[C@H](Cc4ccccc4)NC(=O)[C@H](CCCCN)NC(=O)[C@H](CC(C)C)NC(=O)[C@H](CCCNC(=N)N)NC(=O)[C@H](Cc4ccc(O)cc4)NC(=O)[C@H](CCCCN)NC(=O)[C@H](CCSC)NC(=O)[C@H](CO)NC(=O)[C@H](Cc4cnc[nH]4)NC(=O)[C@H](CCCCN)NC3=O)C(=O)N[C@@H](CCCNC(=N)N)C(=O)N[C@@H](CCCCN)C(=O)N[C@@H]([C@@H](C)O)C(=O)N2)NC(=O)[C@H](CCCNC(=N)N)NC(=O)[C@H](CO)NC(=O)[C@H](CCCCN)NC(=O)[C@@H]2CCCN2C(=O)[C@H]([C@@H](C)CC)NC(=O)[C@H]([C@@H](C)O)NC(=O)[C@H](CC(=O)O)NC1=O`, the results for the 50% inhibitory concentration (IC50) in experiment [1], in experiment [2] and in experiment [3] were 0.273 nM, 0.496 nM and 0.122 nM, respectively.

With `CC[C@H](C)[C@@H]1NC(=O)[C@@H](NC(=O)[C@H](CO)NC(=O)[C@@H](N)CCCNC(=N)N)CSSC[C@@H](C(=O)O)NC(=O)[C@H]([C@@H](C)O)NC(=O)CNC(=O)[C@@H]2CSSC[C@@H]3NC(=O)[C@H](CCC(N)=O)NC(=O)[C@H](Cc4ccccc4)NC(=O)[C@H](C)NC(=O)[C@H]([C@@H](C)O)NC(=O)[C@H](CSSC[C@H](NC(=O)[C@H](CCCCN)NC(=O)[C@H](CO)NC(=O)[C@H](CC(C)C)NC(=O)[C@H](CCCNC(=N)N)NC(=O)[C@H](Cc4ccc(O)cc4)NC(=O)[C@H](CCCCN)NC(=O)[C@H](CCSC)NC(=O)[C@H](CO)NC(=O)[C@H](Cc4cnc[nH]4)NC(=O)[C@H](CCCCN)NC3=O)C(=O)N[C@@H](CCCNC(=N)N)C(=O)N[C@@H](CCCCN)C(=O)N[C@@H]([C@@H](C)O)C(=O)N2)NC(=O)[C@H](CCCNC(=N)N)NC(=O)[C@H](CO)NC(=O)[C@H](CCCCN)NC(=O)[C@@H]2CCCN2C(=O)[C@H]([C@@H](C)CC)NC(=O)[C@H]([C@@H](C)O)NC(=O)[C@H](CC(=O)O)NC1=O`, the IC50 was found to be 3.49 nM in experiment [1], 11.8 nM in experiment [2] and 0.985 nM in experiment [3].

On to `CC[C@H](C)[C@@H]1NC(=O)[C@@H](NC(=O)[C@H](CO)NC(=O)[C@@H](N)CCCNC(=N)N)CSSC[C@@H](C(=O)O)NC(=O)[C@H]([C@@H](C)O)NC(=O)CNC(=O)[C@@H]2CSSC[C@@H]3NC(=O)[C@H](CCC(N)=O)NC(=O)[C@H](Cc4ccccc4)NC(=O)[C@H](C)NC(=O)[C@H]([C@@H](C)O)NC(=O)[C@H](CSSC[C@H](NC(=O)[C@H](Cc4ccccc4)NC(=O)[C@H](CO)NC(=O)[C@H](CC(C)C)NC(=O)[C@H](CCCNC(=N)N)NC(=O)[C@H](Cc4ccc(O)cc4)NC(=O)[C@H](CCCCN)NC(=O)[C@H](CCSC)NC(=O)[C@H](CO)NC(=O)[C@H](C)NC(=O)[C@H](CCCCN)NC3=O)C(=O)N[C@@H](CCCNC(=N)N)C(=O)N[C@@H](CCCCN)C(=O)N[C@@H]([C@@H](C)O)C(=O)N2)NC(=O)[C@H](CCCNC(=N)N)NC(=O)[C@H](CO)NC(=O)[C@H](CCCCN)NC(=O)[C@@H]2CCCN2C(=O)[C@H]([C@@H](C)CC)NC(=O)[C@H]([C@@H](C)O)NC(=O)[C@H](CC(=O)O)NC1=O`, for which the IC50 turned out to be 0.301 nM in experiment [1], 0.556 nM in experiment [2] and 0.24 nM in experiment [3].
